Reference: patent publication US11753373B2, “Protease inhibitors as antivirals” (priority 2021, dated 2023)
Where two headings read alike, the source gives them in different places.

How the values were obtained:
SARS-CoV-2 = assay: Anti-viral in vitro PRNT assay in Vero E6 cells; format: cell-based; details: for EC50: read-out: anti-SARS-CoV2 (PRNT) in Vero E6 EC50
[1] = format: in vitro ADME, Human; details: extraction ratio, compound at 1 uM, human liver microsomes 0.5 mg/mL
Description: (§1) Metabolic stability of novel protease inhibitors was determined via liver microsomal stability assay. Human, mouse, SD rat, beagle dog or monkey liver microsomes were incubated with the test compound for 5 to 60 minutes at 37° C., and then the remaining parent compound was quantified by LC-MS/MS. Percentage of the test compound remaining, half-life (t1/2), in vitro intrinsic clearance (CLint, in vitro), in vivo intrinsic clearance (CLint, in vivo), hepatic clearance (CLh) and extraction ratio (ER) were calculated.
(§2) Procedure: The assay was done as described in Baranczewski, P. et al. (2006) Pharmacological Reports 58:453-472; Pearson, P. and Wienkers, L. (2008) Handbook of Drug Metabolism, 2nd Edition. CRC Pres, P.478; and Venkatesh, P. et al. (2007) Biol. Pharm. Bull. 30:1021-2024. 0.625 mg/mL liver microsomes solution was prepared by mixing 2325 μL 100 mM of K-phosphate buffer (pH 7.4) containing 2.5 mM of MgCl2, 1.25 mM of EDTA, and 75 μL microsomes (20 mg/mL) in a vial for each species.
(§3) Positive control compound: (±) Verapamil hydrochloride (Cat No.: V4629; Lot No.: MKBV4993V; Source: Sigma)
40 μL aliquots of the liver microsome/test compound mixture were dispensed into 96-well plate in triplicate and pre-warmed the mixture for 5 minutes at 37° C. Then, 10 μL of 5 mM NADPH solution was added to each well to initiate the reaction, and gently mixed. The samples were incubated at 37° C. with gentle shaking.
(§4) For 0-min samples, 200 μL of ACN containing internal standard was added to 40 μL of liver microsome/test compound mixture, followed by addition of 5 mM NADPH, and mixed gently.
(§5) For negative control: 40 μL of liver microsome/test compound mixture was incubated at 37° C. with gentle shaking for 60 minutes, followed by addition of 200 μL ACN containing 1% FA and internal standard and 10 μL of 5 mM NADPH, mixed gently.
(§6) All samples were centrifuged at 4° C. for 20 minutes at 4,000 rpm. Then, 100 μL of the supernatant from each sample was transferred to a new 96-well plate and 100 μL of ultrapure water containing 1% FA was added to each well, and mixed gently. Samples were analyzed by LC-MS/MS.
(§7) Data Analysis: Peak area ratio (Peak Area of test compound/Peak Area of internal standard) was used to represent the concentration of compound in each sample. The remaining percentage (% Remaining) at appointed time points was calculated versus the concentration of compound at 0 min. The Ln value of the remaining percentage was linearly fitted against the incubation time.
(§8) The half-life and clearance were calculated using the following equations:
(§9) Determined percent of the remaining test compound: % remaining=[area at tx/average areas at t0]×100 (1) % metabolized=[100−% remaining] (2)
(§10) Calculated the half-life (t1/2) using the slope (k) of the log-linear regression from the concentration of remaining parent compound versus time (min) relationship: t1/2 (min)=−ln 2/k. (3)
(§11) Clint, in vitro (mL/min/mg) Clint,in vitro=k/c,(c:Liver microsome concentration in the incubation system) (4)
(§12) Hepatic Clearance (CLh) CLh=Clint,in vivo*Hepatic Blood Flow (mL/min/kg)/(Hepatic Blood Flow (mL/min/kg)+Clint,in vivo) (6)
(§13) Extraction ratio (ER): ER=CLint,in vivo/(Qh+CLint,in vivo)*100,Qh:liver blood flow (7)

[2] = format: in vitro ADME; details: extraction ratio, compound at 1 uM; for Liver Microsomal Stability (ER) SD rat: SD rat liver microsomes 0.5 mg/mL; for Liver Microsomal Stability (ER) Beagle dog: beagle dog liver microsomes 0.5 mg/mL; for Liver Microsomal Stability (ER) Mouse: mouse liver microsomes 0.5 mg/mL
Description: as §1, §2, §3
40 μL aliquots of the liver microsome/test compound mixture were dispensed into 96-well plate in triplicate and pre-warmed the mixture for 5 minutes at 37° C. Then, 10 μL of 5 mM NADPH solution was added to each well to initiate the reaction, and gently mixed. The samples were incubated at 37° C. with gentle shaking. (Final concentrations: compound=1 μM; liver microsomes protein=0.5 mg/mL; MgCl2=2 mM; EDTA=1 mM; ACN=0.1%; DMSO=0.05%).
as §4, §5, §6, §7, §8, §9, §10, §11, §12, §13

[3] = Vero E6 cells, 1000 pfu, 3 days, plaque reduction

For COC(=O)[C@H](C[C@@H]1CCNC1=O)NC(=O)[C@H](CC(C)C)NC(=O)c1cc2ccccc2[nH]1 [Compound A-1-a, methyl (S)-2-((S)-2-(1H-indole-2-carboxamido)-4-methylpentanamido)-3-((S)-2-oxopyrrolidin-3-yl)propanoate], the “anti-SARS-CoV2 (PRNT) in Vero E6 EC50 (μM)” value (“anti-SARS-CoV2 (PRNT)” for short) (SARS-CoV-2; [3]) was “inactive”.
For CC(C)C[C@H](NC(=O)c1cc2ccccc2[nH]1)C(=O)N[C@@H](C[C@@H]1CCNC1=O)C(=O)O [Compound A-1-e, (2S)-2-[(2S)-2-[(1H-indol-2-yl)formamido]-4-methylpentanamido]-3-[(3S)-2-oxopyrrolidin-3-yl]propanoic acid], the “Liver Microsomal Stability (ER) Human” value [1] was 0.00, the “Liver Microsomal Stability (ER) SD rat” value [2] was −0.02 and the “Liver Microsomal Stability (ER) Beagle dog” value [2] was 0.02. For the same compound, the “Liver Microsomal Stability (ER) Mouse” value [2] was 0.09.
With O=C[C@H](C[C@@H]1CCNC1=O)NC(=O)[C@H](CC1CCCCC1)NC(=O)c1cc2ccccc2[nH]1 [Compound A-2-c] the EC50 (SARS-CoV-2) was 640 nM.
For CC(C)C[C@@H](NC(=O)c1cc2c(F)cccc2[nH]1)C(=O)N[C@H](C#N)C[C@@H]1CCNC1=O [Compound A-3-b], the “Liver Microsomal Stability (ER) Human” value [1] was 0.18, the “Liver Microsomal Stability (ER) SD rat” value [2] was 0.37 and the “Liver Microsomal Stability (ER) Beagle dog” value [2] was 0.06. The “Liver Microsomal Stability (ER) Mouse” value [2] was 0.37.
For CC(C)C[C@H](NC(=O)c1cc2c(F)cccc2[nH]1)C(=O)N[C@H](C=O)C[C@@H]1CCNC1=O [Compound A-3-c], the EC50 (SARS-CoV-2; [3]) was 310 nM, the “Liver Microsomal Stability (ER) Human” value [1] was 0.18 and the “Liver Microsomal Stability (ER) SD rat” value [2] was 0.14. The “Liver Microsomal Stability (ER) Beagle dog” value [2] was −0.02 and the “Liver Microsomal Stability (ER) Mouse” value [2] was 0.14.
For COc1cccc2[nH]c(C(=O)N[C@@H](CC(C)C)C(=O)N[C@H](C=O)C[C@@H]3CCNC3=O)cc12 [Compound A-5-a], the EC50 (SARS-CoV-2; [3]) was 1520 nM, the “Liver Microsomal Stability (ER) Human” value [1] was 0.10 and the “Liver Microsomal Stability (ER) SD rat” value [2] was 0.11. The “Liver Microsomal Stability (ER) Beagle dog” value [2] was 0.05 and the “Liver Microsomal Stability (ER) Mouse” value [2] was 0.19.
With COC(=O)[C@H](C[C@@H]1CCNC1=O)NC(=O)[C@H](CC(C)C)NC(=O)OCc1ccccc1 [Compound B-1-a, methyl (S)-2-((S)-2-(((benzyloxy)carbonyl)-amino)-4-methylpentanamido)-3-((S)-2-oxopyrrolidin-3-yl)propanoate] the “anti-SARS-CoV2 (PRNT)” value (SARS-CoV-2; [3]) was “inactive”.
CC(C)C[C@H](NC(=O)OCc1ccccc1)C(=O)N[C@H](C=O)C[C@@H]1CCNC1=O [Compound B-1-b, benzyl ((S)-4-methyl-1-oxo-1-(((S)-1-oxo-3-((S)-2-oxopyrrolidin-3-yl)propan-2-yl)amino)pentan-2-yl)carbamate] showed an EC50 (SARS-CoV-2; Severe acute respiratory syndrome coronavirus 2, Vero C1008, 72 h) of 1130 nM.
With CC(C)C[C@H](NC(=O)OCc1ccccc1)C(=O)N[C@@H](C[C@@H]1CCNC1=O)C(=O)CCl [Compound B-1-c] the EC50 (SARS-CoV-2) was 2290 nM.
In the case of C=CC(=O)[C@H](C[C@@H]1CCNC1=O)NC(=O)[C@H](CC(C)C)NC(=O)OCc1ccccc1 [Compound B-1-d], the “anti-SARS-CoV2 (PRNT)” value (SARS-CoV-2) is reported as “inactive”.
For COC(=O)[C@H](C[C@@H]1CCNC1=O)NC(=O)[C@H](CC1CCCCC1)NC(=O)OCc1ccccc1 [Compound B-2-a, methyl (S)-2-((S)-2-(((benzyloxy)carbonyl)amino)-3-cyclohexylpropan-amido)-3-((S)-2-oxopyrrolidin-3-yl)propanoate], the “anti-SARS-CoV2 (PRNT)” value (SARS-CoV-2; [3]) was “inactive”.
With COC(=O)[C@H](C[C@@H]1CCNC1=O)NC(=O)[C@@H]1[C@@H]2[C@H](CN1C(=O)[C@@H](NC(=O)C(F)(F)F)C(C)(C)C)C2(C)C [Compound D-1-a, methyl (2S)-2-{[(1R,2S,5S)-3-[(2S)-3,3-dimethyl-2-(trifluoroacetamido)-butanoyl]-1,5-dihydrogenio-6,6-dimethyl-3-azabicyclo[3.1.0]hexan-2-yl]formamido}-3-[(3S)-2-oxopyrrolidin-3-yl]propanoate] the “anti-SARS-CoV2 (PRNT)” value (SARS-CoV-2) was “inactive”.
With CC(C)(C)[C@H](NC(=O)C(F)(F)F)C(=O)N[C@@H](CC1CCCCC1)C(=O)N[C@H](C#N)C[C@@H]1CCNC1=O [Compound D-4-a] the “Liver Microsomal Stability (ER) Human” value [1] was 0.46, the “Liver Microsomal Stability (ER) SD rat” value [2] was 0.29 and the “Liver Microsomal Stability (ER) Beagle dog” value [2] was 0.21. For the same compound, the “Liver Microsomal Stability (ER) Mouse” value [2] was 0.72.
For C[C@@H](C=O)NC(=O)[C@H](CC1CCCCC1)N(C(=O)OCc1ccccc1)C1CC1 [Compound E-1-b], the “anti-SARS-CoV2 (PRNT)” value (SARS-CoV-2) was “inactive”.
For COC(=O)[C@H](C)NC(=O)[C@@H]1[C@@H]2[C@H](CN1C(=O)[C@@H](NC(=O)C(F)(F)F)C(C)(C)C)C2(C)C [Compound F-1-a, methyl ((1R,2S,5S)-3-((S)-3,3-dimethyl-2-(2,2,2-trifluoroacetamido)butanoyl)-6,6-dimethyl-3-azabicyclo[3.1.0]hexane-2-carbonyl)-L-alaninate], the “anti-SARS-CoV2 (PRNT)” value (SARS-CoV-2) was “inactive”.
In the case of C[C@@H](C#N)NC(=O)[C@@H]1[C@@H]2[C@H](CN1C(=O)[C@@H](NC(=O)C(F)(F)F)C(C)(C)C)C2(C)C [Compound F-1-c], the “anti-SARS-CoV2 (PRNT)” value (SARS-CoV-2) is reported as “inactive”.
For C=CC(=O)N[C@H](C)NC(=O)[C@@H]1[C@@H]2[C@H](CN1C(=O)[C@@H](NC(=O)C(F)(F)F)C(C)(C)C)C2(C)C [Compound F-1-d], the “anti-SARS-CoV2 (PRNT)” value (SARS-CoV-2) was “inactive”.
With COC(=O)[C@@H](NC(=O)[C@@H]1[C@@H]2[C@H](CN1C(=O)[C@@H](NC(=O)C(F)(F)F)C(C)(C)C)C2(C)C)C(C)C [Compound F-2-a, methyl ((1R,2S,5S)-3-((S)-3,3-dimethyl-2-(2,2,2-trifluoroacetamido)-butanoyl)-6,6-dimethyl-3-azabicyclo[3.1.0]hexane-2-carbonyl)-L-valinate] the “anti-SARS-CoV2 (PRNT)” value (SARS-CoV-2) was “inactive”.
In the case of CC(C)[C@@H](C#N)NC(=O)[C@@H]1[C@@H]2[C@H](CN1C(=O)[C@@H](NC(=O)C(F)(F)F)C(C)(C)C)C2(C)C [Compound F-2-c], the “anti-SARS-CoV2 (PRNT)” value (SARS-CoV-2) is reported as “inactive”.
For C=CC(=O)N[C@@H](NC(=O)[C@@H]1[C@@H]2[C@H](CN1C(=O)[C@@H](NC(=O)C(F)(F)F)C(C)(C)C)C2(C)C)C(C)C [Compound F-2-d], the “anti-SARS-CoV2 (PRNT)” value (SARS-CoV-2) was “inactive”.
With C[C@@H](C#N)NC(=O)[C@@H]1[C@@H]2[C@H](CN1C(=O)[C@@H](NC(=O)C(F)(F)F)C1CC1)C2(C)C [Compound F-3-a] the “anti-SARS-CoV2 (PRNT)” value (SARS-CoV-2) was “inactive”.
In the case of C=CC(=O)N[C@@H](NC(=O)[C@@H]1[C@@H]2[C@H](CN1C(=O)[C@@H](NC(=O)C(F)(F)F)C1CC1)C2(C)C)C(C)C [Compound F-4-b], the “anti-SARS-CoV2 (PRNT)” value (SARS-CoV-2) is reported as “inactive”.
